Measurements as given in US20240158446A1, “CYCLIC COMPOUND HAVING SELECTIVE INHIBITORY ACTION ON KRAS OVER HRAS AND NRAS” (CHUGAI SEIYAKU KABUSHIKI KAISHA, priority 2021, published 2024).

How the values were obtained:
[1] = biological target: GDP-bound KRAS wild-type protein (Homo sapiens, UniProt P01116); assay: Binding to KRAS by surface plasmon resonance (SPR), Single Cycle Kinetics; conditions: SPR Single Cycle Kinetics, GDP-bound KRAS wild-type protein, 1:1 binding model; read-out: KRAS KD
GDP-bound KRAS wild-type protein, sequence (P01116 whole entry): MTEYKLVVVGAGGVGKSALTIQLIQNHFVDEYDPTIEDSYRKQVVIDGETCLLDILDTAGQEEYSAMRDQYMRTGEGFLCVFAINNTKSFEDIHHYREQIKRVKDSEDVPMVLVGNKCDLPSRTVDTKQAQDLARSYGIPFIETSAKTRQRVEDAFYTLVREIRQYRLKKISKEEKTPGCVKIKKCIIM

[2] = biological target: GDP-bound NRAS wild-type protein (Homo sapiens, UniProt P01111); assay: Binding to NRAS by surface plasmon resonance (SPR), Single Cycle Kinetics; conditions: SPR KD ratio NRAS/KRAS, class symbols
GDP-bound NRAS wild-type protein, sequence (P01111 whole entry): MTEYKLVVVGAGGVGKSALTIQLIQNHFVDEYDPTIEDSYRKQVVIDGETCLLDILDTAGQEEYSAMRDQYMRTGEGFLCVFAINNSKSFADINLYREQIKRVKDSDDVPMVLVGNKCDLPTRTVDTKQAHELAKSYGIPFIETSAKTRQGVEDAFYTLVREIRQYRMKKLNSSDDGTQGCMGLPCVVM

[3] = biological target: GDP-bound HRAS wild-type protein (Homo sapiens, UniProt P01112); assay: Binding to HRAS by surface plasmon resonance (SPR), Single Cycle Kinetics; conditions: SPR KD ratio HRAS/KRAS, class symbols
GDP-bound HRAS wild-type protein, sequence (P01112 whole entry): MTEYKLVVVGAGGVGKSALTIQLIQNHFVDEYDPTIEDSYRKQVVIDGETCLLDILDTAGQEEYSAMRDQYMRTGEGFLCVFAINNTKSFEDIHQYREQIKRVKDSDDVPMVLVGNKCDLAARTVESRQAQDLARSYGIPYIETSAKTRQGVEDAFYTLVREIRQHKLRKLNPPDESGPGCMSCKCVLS

Row | SMILES | Kd [1] | NRAS/KRAS (ratio of KD value with respect to GDP-bound NRAS wild-type protein to KD value with respect to KRAS) [2] | HRAS/KRAS (ratio of KD value with respect to GDP-bound HRAS wild-type protein to KD value with respect to KRAS) [3]
1 | C#CC[C@H]1C(=O)N[C@@H]([C@@H](C)CC)C(=O)N(C)CC(=O)N(C)[C@H]2C/C=C\CCN(C2=O)[C@@H](Cc2ccc(C(F)(F)F)cc2)C(=O)N(C)CC(=O)N[C@@H](CCc2ccc(C(F)(F)F)c(OC)c2)C(=O)N2CCOC[C@H]2C(=O)NC2(CC(C)(C)C2)C(=O)N(C)[C@@H](C2CCCC2)C(=O)N(C)[C@H](C(=O)N(C)C)CC(=O)N1C [PP2905] | 0.24 nM | AA (a compound having 20 or more is denoted as AA) | A (a compound having 10 or more and less than 20 is denoted as A)
2 | CC[C@H](C)[C@@H]1NC(=O)[C@H](COC)N(C)C(=O)C[C@@H](C(=O)N(C)C)N(C)C(=O)[C@H](C2CCCC2)N(C)C(=O)C2(CC(C)(C)C2)NC(=O)[C@@H]2CCCCN2C(=O)[C@H](CCc2cc(F)c(C(F)(F)F)c(F)c2)NC(=O)CN(C)C(=O)[C@H](Cc2ccc(C(F)(F)F)cc2)N2CC/C=C\C[C@@H](C2=O)N(C)C(=O)CN(C)C1=O [PP2907] | 0.23 nM | AA (a compound having 20 or more is denoted as AA) | A (a compound having 10 or more and less than 20 is denoted as A)
3 | CCC[C@H]1C(=O)N[C@@H]([C@@H](C)CC)C(=O)N(C)CC(=O)N(C)[C@H]2C/C=C\CCN(C2=O)[C@@H](Cc2ccc(C(F)(F)F)cc2)C(=O)N(C)CC(=O)N[C@@H](CCc2ccc3c(C)cn(C)c3c2)C(=O)N2C[C@H](OCC)C[C@H]2C(=O)NC2(CC(C)(C)C2)C(=O)N(C)[C@@H](C(CC)CC)C(=O)N(C)[C@H](C(=O)N(C)C)CC(=O)N1C [PP2908] | 1.5 nM | AA (a compound having 20 or more is denoted as AA) | A (a compound having 10 or more and less than 20 is denoted as A)
4 | C#CC[C@H]1C(=O)N[C@@H]([C@@H](C)CC)C(=O)N(C)CC(=O)N(C)[C@H]2C/C=C\CCN(C2=O)[C@@H](Cc2ccc(C(F)(F)F)cc2)C(=O)N(C)CC(=O)N[C@@H](CCc2ccc(C(F)(F)F)c(OC)c2)C(=O)N2CC[C@H]2C(=O)NC2(CC(C)(C)C2)C(=O)N(C)[C@@H](C2CCCC2)C(=O)N(C)[C@H](C(=O)N(C)C)CC(=O)N1C [PP2909] | 1 nM | B (a compound having 3 or more and less than 10 is denoted as B) | B (a compound having 3 or more and less than 10 is denoted as B)
5 | C#CC[C@H]1C(=O)N[C@@H]([C@@H](C)CC)C(=O)N(C)CC(=O)N(C)[C@H]2C/C=C\CCN(C2=O)[C@@H](Cc2ccc(C(F)(F)F)cc2)C(=O)N(C)CC(=O)N[C@@H](CCc2ccc(C(F)(F)F)c(OC)c2)C(=O)N2CC[C@H]2C(=O)NC2(CCC2)C(=O)N(C)[C@@H](C2CCCC2)C(=O)N(C)[C@H](C(=O)N(C)C)CC(=O)N1C [PP2911] | 0.52 nM | A (a compound having 10 or more and less than 20 is denoted as A) | B (a compound having 3 or more and less than 10 is denoted as B)
6 | CCC[C@H]1C(=O)N[C@@H]([C@@H](C)CC)C(=O)N(C)CC(=O)N(C)[C@H]2C/C=C\CCN(C2=O)[C@@H](Cc2ccc(C(F)(F)F)cc2)C(=O)N(C)CC(=O)N[C@@H](CCc2ccc3ccn(C)c3c2)C(=O)N2C[C@H](OCC)C[C@H]2C(=O)NC2(CC(C)(C)C2)C(=O)N(C)[C@@H](C(CC)CC)C(=O)N(C)[C@H](C(=O)N(C)C)CC(=O)N1C [PP2912] | 8.7 nM | AA (a compound having 20 or more is denoted as AA) | A (a compound having 10 or more and less than 20 is denoted as A)
7 | CCCN(C)C(=O)[C@@H]1CC(=O)N(C)[C@@H](CC)C(=O)N[C@@H]([C@@H](C)CC)C(=O)N(C)CC(=O)N(C)[C@H]2C/C=C\CCN(C2=O)[C@@H](Cc2ccc(C(F)(F)F)cc2)C(=O)N(C)CC(=O)N[C@@H](CCc2cc(F)c(C(F)(F)F)c(F)c2)C(=O)N2C[C@H](OCC3CC3)C[C@H]2C(=O)NC2(CCC2)C(=O)N(C)[C@@H](C2CCCC2)C(=O)N1C [PP2913] | 0.17 nM | A (a compound having 10 or more and less than 20 is denoted as A) | A (a compound having 10 or more and less than 20 is denoted as A)
8 | CCCN(C)C(=O)[C@@H]1CC(=O)N(C)[C@@H](CC)C(=O)N[C@@H]([C@@H](C)CC)C(=O)N(C)CC(=O)N(C)[C@H]2C/C=C\CCN(C2=O)[C@@H](Cc2ccc(C(F)(F)F)cc2)C(=O)N(C)CC(=O)N[C@@H](CCc2cc(F)c(C(F)(F)F)c(F)c2)C(=O)N2CC[C@H]2C(=O)NC2(CCC2)C(=O)N(C)[C@@H](C2CCCC2)C(=O)N1C [PP2915] | 1.2 nM | A (a compound having 10 or more and less than 20 is denoted as A) | A (a compound having 10 or more and less than 20 is denoted as A)
9 | CCC(CC)[C@H]1C(=O)N(C)[C@H](C(=O)N(C)C)CC(=O)N(C)[C@@H](COC)C(=O)N[C@@H]([C@@H](C)CC)C(=O)N(C)CC(=O)N(C)[C@H]2C/C=C\CCN(C2=O)[C@@H](Cc2ccc(C(F)(F)F)cc2)C(=O)N(C)CC(=O)N[C@@H](CCc2cc(F)c(C(F)(F)F)c(F)c2)C(=O)N2CCCC[C@H]2C(=O)NC2(CC(C)(C)C2)C(=O)N1C [PP2916] | 1.3 nM | A (a compound having 10 or more and less than 20 is denoted as A) | A (a compound having 10 or more and less than 20 is denoted as A)
10 | CCC(CC)[C@H]1C(=O)N(C)[C@H](C(=O)N(C)C)CC(=O)N(C)[C@@H](COC)C(=O)N[C@@H]([C@@H](C)CC)C(=O)N(C)CC(=O)N(C)[C@H]2C/C=C\CCN(C2=O)[C@@H](Cc2ccc(C(F)(F)F)cc2)C(=O)N(C)CC(=O)N[C@@H](CCc2cc(F)c(C(F)(F)F)c(F)c2)C(=O)N2CCOC[C@H]2C(=O)NC2(CC(C)(C)C2)C(=O)N1C [PP2917] | 1.4 nM | AA (a compound having 20 or more is denoted as AA) | A (a compound having 10 or more and less than 20 is denoted as A)
11 | CCC(CC)[C@H]1C(=O)N(C)[C@H](C(=O)N(C)C)CC(=O)N(C)[C@@H](COC)C(=O)N[C@@H]([C@@H](C)CC)C(=O)N(C)CC(=O)N(C)[C@H]2C/C=C\CCN(C2=O)[C@@H](Cc2ccc(C(F)(F)F)cc2)C(=O)N(C)CC(=O)N[C@@H](CCc2cc(F)c(C(F)(F)F)c(F)c2)C(=O)N2CC[C@H]2C(=O)NC2(CC(C)(C)C2)C(=O)N1C [PP2918] | 1.8 nM | AA (a compound having 20 or more is denoted as AA) | A (a compound having 10 or more and less than 20 is denoted as A)
12 | CCC[C@H]1C(=O)N[C@@H]([C@@H](C)CC)C(=O)N(C)CC(=O)N(C)[C@H]2C/C=C\CCN(C2=O)[C@@H](Cc2ccc(C(F)(F)F)cc2)C(=O)N(C)CC(=O)N[C@@H](CCc2ccc(Cl)c(Cl)c2)C(=O)N2CCOC[C@H]2C(=O)NC2(CC(C)(C)C2)C(=O)N(C)[C@@H](C(CC)CC)C(=O)N(C)[C@H](C(=O)N(C)C)CC(=O)N1C [PP2920] | 4 nM | AA (a compound having 20 or more is denoted as AA) | A (a compound having 10 or more and less than 20 is denoted as A)
13 | CCC[C@H]1C(=O)N[C@@H]([C@@H](C)CC)C(=O)N(C)CC(=O)N(C)[C@H]2C/C=C\CCN(C2=O)[C@@H](Cc2ccc(C(F)(F)F)cc2)C(=O)N(C)CC(=O)N[C@@H](CCc2ccc(Cl)c(Cl)c2)C(=O)N2CC[C@H]2C(=O)NC2(CC(C)(C)C2)C(=O)N(C)[C@@H](C(CC)CC)C(=O)N(C)[C@H](C(=O)N(C)C)CC(=O)N1C [PP2921] | 6.9 nM | AA (a compound having 20 or more is denoted as AA) | A (a compound having 10 or more and less than 20 is denoted as A)
14 | CCC[C@H]1C(=O)N[C@@H]([C@@H](C)CC)C(=O)N(C)CC(=O)N(C)[C@H]2C/C=C\CCN(C2=O)[C@@H](Cc2ccc(C(F)(F)F)cc2)C(=O)N(C)CC(=O)N[C@@H](CCc2ccc(C(F)(F)F)c(Cl)c2)C(=O)N2CCCC[C@H]2C(=O)NC2(CC(C)(C)C2)C(=O)N(C)[C@@H](C(CC)CC)C(=O)N(C)[C@H](C(=O)N(C)C)CC(=O)N1C [PP2928] | 4.8 nM | AA (a compound having 20 or more is denoted as AA) | A (a compound having 10 or more and less than 20 is denoted as A)
